Data on twelve molecules can be found in patent US12637473B2, “MDM2 protein degraders” (THE REGENTS OF THE UNIVERSITY OF MICHIGAN, priority 2016, dated 2026).

For this assay, the system named is RS4; 11 cell line. As to the kind of experiment: CellTiter-Glo Luminescent Cell Viability Assay, cell growth inhibition. The class given is cell-based. The following applies: Homo sapiens, 96 h, 4 days. The method, then: Cell growth inhibitory activity of representative MDM2 protein degraders was determined using CellTiter-Glo® Luminescent Cell Viability Assay. Cells were seeded in 384-well white opaque cell culture plates at a density of 2,000 cells/well with serially diluted compounds and incubated at 37° C. in an atmosphere of 95% air and 5% CO2 for 4 days. Cell viability was determined using the CellTiter-Glo® Luminescent Cell Viability Assay Kit (Promega, Madison, WI) according to the manufacture's instruction. Briefly, a volume of CellTiter-Glo® Reagent equal to the volume of cell culture medium was added to each well, and then the plates were incubated at room temperature for 10-20 minutes. The luminescent signal was measured using a Tecan Infinite M1000 multimode microplate reader (Tecan, Morrisville, NC). The half maximal inhibitory concentration (IC50) was calculated using the GraphPad Prism 5 software (GraphPad Software, La Jolla, CA). Cpd. […] The structure of Cpd.
Background: ATP-based viability assays read luminescence as a measure of living cells.
For orientation: IC50 means the midpoint of a concentration-inhibition curve. `O=C1CCC(N2C(=O)c3cccc(NCCCCCNC(=O)c4ccc(NC(=O)[C@@H]5NC6(CCCCC6)[C@@]6(C(=O)Nc7cc(Cl)ccc76)[C@H]5c5cccc(Cl)c5F)cc4)c3C2=O)C(=O)N1` (stereo partly drawn) [Cpd. No. 10, (3′R,4'S,5′R)-6″-chloro-4′-(3-chloro-2-fluorophenyl)-N-(4-((5-((2-(2,6-dioxopiperidin-3-yl)-1,3-dioxoisoindolin-4-yl)amino)pentyl)carbamoyl)phenyl)-2″-oxodispiro[cyclohexane-1,2′-pyrrolidine-3′,3″-indoline]-5′-carboxamide] registered an IC50 of 12 nM.

Take `O=C1CCC(N2C(=O)c3cccc(NCCCCCCCNC(=O)c4ccc(NC(=O)[C@@H]5NC6(CCCCC6)[C@@]6(C(=O)Nc7cc(Cl)ccc76)[C@H]5c5cccc(Cl)c5F)cc4)c3C2=O)C(=O)N1` (stereo partly drawn) [Cpd. No. 12, (3′R,4'S,5′R)-6″-chloro-4′-(3-chloro-2-fluorophenyl)-N-(4-((7-((2-(2,6-dioxopiperidin-3-yl)-1,3-dioxoisoindolin-4-yl)amino)heptyl)carbamoyl)phenyl)-2″-oxodispiro[cyclohexane-1,2′-pyrrolidine-3′,3″-indoline]-5′-carboxamide]: the concentration for half-maximal inhibition (IC50) amounted to 100 nM. This IC50 is about 8.3-fold higher than that of the molecule before. Consider `O=C1CCC(N2C(=O)c3cccc(NCCCOCCOCCOCCCNC(=O)c4ccc(NC(=O)[C@@H]5NC6(CCCCC6)[C@@]6(C(=O)Nc7cc(Cl)ccc76)[C@H]5c5cccc(Cl)c5F)nc4)c3C2=O)C(=O)N1` (stereo partly drawn) [Cpd. No. 25, (3′R,4'S,5′R)-6″-chloro-4′-(3-chloro-2-fluorophenyl)-N-(5-((3-(2-(2-(3-((2-(2,6-dioxopiperidin-3-yl)-1,3-dioxoisoindolin-4-yl)amino)propoxy)ethoxy)ethoxy)propyl)carbamoyl)pyridin-2-yl)-2″-oxodispiro[cyclohexane-1,2′-pyrrolidine-3′,3″-indoline]-5′-carboxamide], for which the half-maximal inhibitory concentration (IC50) was determined as 7.4 nM. Next, `O=C1CCC(N2C(=O)c3cccc(NCCOCCOCCNC(=O)c4ccc(NC(=O)[C@@H]5NC6(CCCCC6)[C@@]6(C(=O)Nc7cc(Cl)ccc76)[C@H]5c5cccc(Cl)c5F)cn4)c3C2=O)C(=O)N1` (stereo partly drawn) [Cpd. No. 26, (3′R,4'S,5′R)-6″-chloro-4′-(3-chloro-2-fluorophenyl)-N-(6-((2-(2-(2-((2-(2,6-dioxopiperidin-3-yl)-1,3-dioxoisoindolin-4-yl)amino)ethoxy)ethoxy)ethyl)carbamoyl)pyridin-3-yl)-2″-oxodispiro[cyclohexane-1,2′-pyrrolidine-3′,3″-indoline]-5′-carboxamide]: 8 nM. Consider `O=C1CCC(N2C(=O)c3cccc(NCCCOCCOCCOCCCNC(=O)c4ccc(NC(=O)[C@@H]5NC6(CCCCC6)[C@@]6(C(=O)Nc7cc(Cl)ccc76)[C@H]5c5cccc(Cl)c5F)cn4)c3C2=O)C(=O)N1` (stereo partly drawn) [Cpd. No. 27, (3′R,4'S,5′R)-6″-chloro-4′-(3-chloro-2-fluorophenyl)-N-(6-((3-(2-(2-(3-((2-(2,6-dioxopiperidin-3-yl)-1,3-dioxoisoindolin-4-yl)amino)propoxy)ethoxy)ethoxy)propyl)carbamoyl)pyridin-3-yl)-2″-oxodispiro[cyclohexane-1,2′-pyrrolidine-3′,3″-indoline]-5′-carboxamide], for which the IC50 is 4.6 nM.

Take `O=C1CCC(N2Cc3c(NC(=O)CCCCNC(=O)c4ccc(NC(=O)[C@@H]5NC6(CCCCC6)[C@@]6(C(=O)Nc7cc(Cl)ccc76)[C@H]5c5cccc(Cl)c5F)cc4)cccc3C2=O)C(=O)N1` (stereo partly drawn) [Cpd. No. 28, (3′R,4'S,5′R)-6″-chloro-4′-(3-chloro-2-fluorophenyl)-N-(4-((5-((2-(2,6-dioxopiperidin-3-yl)-1-oxoisoindolin-4-yl)amino)-5-oxopentyl)carbamoyl)phenyl)-2″-oxodispiro[cyclohexane-1,2′-pyrrolidine-3′,3″-indoline]-5′-carboxamide]: inhibition was half-maximal at 7 nM (IC50). As for `O=C1CCC(N2Cc3c(NC(=O)CCOCCOCCNC(=O)c4ccc(NC(=O)[C@@H]5NC6(CCCCC6)[C@@]6(C(=O)Nc7cc(Cl)ccc76)[C@H]5c5cccc(Cl)c5F)cc4)cccc3C2=O)C(=O)N1` (stereo partly drawn) [Cpd. No. 29, (3′R,4'S,5′R)-6″-chloro-4′-(3-chloro-2-fluorophenyl)-N-(4-((2-(2-(3-((2-(2,6-dioxopiperidin-3-yl)-1-oxoisoindolin-4-yl)amino)-3-oxopropoxy)ethoxy)ethyl)carbamoyl)phenyl)-2″-oxodispiro[cyclohexane-1,2′-pyrrolidine-3′,3″-indoline]-5′-carboxamide], the figure is 15 nM; as for `O=C1CCC(N2Cc3c(NC(=O)CCOCCOCCOCCNC(=O)c4ccc(NC(=O)[C@@H]5NC6(CCCCC6)[C@@]6(C(=O)Nc7cc(Cl)ccc76)[C@H]5c5cccc(Cl)c5F)cc4)cccc3C2=O)C(=O)N1` (stereo partly drawn) [Cpd. No. 30, (3′R,4'S,5′R)-6″-chloro-4′-(3-chloro-2-fluorophenyl)-N-(4-((2-(2-(2-(3-((2-(2,6-dioxopiperidin-3-yl)-1-oxoisoindolin-4-yl)amino)-3-oxopropoxy)ethoxy)ethoxy)ethyl)carbamoyl)phenyl)-2″-oxodispiro[cyclohexane-1,2′-pyrrolidine-3′,3″-indoline]-5′-carboxamide], 13 nM; as for `O=C1CCC(N2Cc3c(CCCCCNC(=O)c4ccc(NC(=O)[C@@H]5NC6(CCCCC6)[C@@]6(C(=O)Nc7cc(Cl)ccc76)[C@H]5c5cccc(Cl)c5F)cc4)cccc3C2=O)C(=O)N1` (stereo partly drawn) [Cpd. No. 31, (3′R,4'S,5′R)-6″-chloro-4′-(3-chloro-2-fluorophenyl)-N-(4-((5-(2-(2,6-dioxopiperidin-3-yl)-1-oxoisoindolin-4-yl)pentyl)carbamoyl)phenyl)-2″-oxodispiro[cyclohexane-1,2′-pyrrolidine-3′,3″-indoline]-5′-carboxamide], 1.8 nM. As to `O=C1CCC(N2C(=O)c3cccc(CCCCCNC(=O)c4ccc(NC(=O)[C@@H]5NC6(CCCCC6)[C@@]6(C(=O)Nc7cc(Cl)ccc76)[C@H]5c5cccc(Cl)c5F)cc4)c3C2=O)C(=O)N1` (stereo partly drawn) [Cpd. No. 32, (3′R,4'S,5′R)-6″-chloro-4′-(3-chloro-2-fluorophenyl)-N-(4-((5-(2-(2,6-dioxopiperidin-3-yl)-1,3-dioxoisoindolin-4-yl)pentyl)carbamoyl)phenyl)-2″-oxodispiro[cyclohexane-1,2′-pyrrolidine-3′,3″-indoline]-5′-carboxamide], the 50% inhibitory concentration (IC50) was 23 nM. As for `O=C1CCC(N2Cc3c(CCCOCCNC(=O)c4ccc(NC(=O)[C@@H]5NC6(CCCCC6)[C@@]6(C(=O)Nc7cc(Cl)ccc76)[C@H]5c5cccc(Cl)c5F)cc4)cccc3C2=O)C(=O)N1` (stereo partly drawn) [Cpd. No. 33, (3′R,4'S,5′R)-6″-chloro-4′-(3-chloro-2-fluorophenyl)-N-(4-((2-(3-(2-(2,6-dioxopiperidin-3-yl)-1-oxoisoindolin-4-yl)propoxy)ethyl)carbamoyl)phenyl)-2″-oxodispiro[cyclohexane-1,2′-pyrrolidine-3′,3″-indoline]-5′-carboxamide], half-maximal inhibition (IC50) was put at 2.9 nM.

The molecule `O=C1CCC(N2C(=O)c3cccc(CCCOCCNC(=O)c4ccc(NC(=O)[C@@H]5NC6(CCCCC6)[C@@]6(C(=O)Nc7cc(Cl)ccc76)[C@H]5c5cccc(Cl)c5F)cc4)c3C2=O)C(=O)N1` (stereo partly drawn) [Cpd. No. 34, (3′R,4'S,5′R)-6″-chloro-4′-(3-chloro-2-fluorophenyl)-N-(4-((2-(3-(2-(2,6-dioxopiperidin-3-yl)-1,3-dioxoisoindolin-4-yl)propoxy)ethyl)carbamoyl)phenyl)-2″-oxodispiro[cyclohexane-1,2′-pyrrolidine-3′,3″-indoline]-5′-carboxamide] yielded an IC50 of 17.8 nM. Compared with the last molecule, the IC50 is about 6.1-fold higher.
